Measured values from US20240199676A1, “ANTIVIRAL COMPOUNDS AND METHODS OF MAKING AND USING THE SAME” (Gilead Sciences, Inc., priority 2022, published 2024).

Key:
[1] = GI S9 stability (Ex. Z), human intestinal S9; assay type: in vitro ADME; details: pooled intestinal S9 fractions; human intestinal S9, 1.0 mg/mL protein, 2 μM substrate, pH 7.4; read-out: GIS9 Human T½ (per Ex. Z)
Description: (§1) Example Z: GI S9 stability data:
(§2) Stock solutions of test compounds in dimethyl sulfoxide (DMSO) having a final concentration of 10 mM were prepared and used in all experiments. Sekisui XenoTech (Kansas City, KS) provided pooled intestinal S9 fractions. All other chemicals were purchased from Sigma-Aldrich (St. Louis, MO) or VWR (West Chester, PA). Internal Standard/Quench (IS/Q) used to stop reactions was 100 nM labetalol in (by volume) methanol (10%) and acetonitrile (90%).
(§3) Stability in Intestinal S9 Fractions: Duplicate aliquots of test compound or positive control substrate were added to S9 stock diluted with phosphate buffered saline (137 mM NaCl, 2.7 mM KCl, 10 mM phosphate buffer), pH 7.4, to obtain a protein concentration of 1.0 mg/mL. The metabolic reactions were initiated by the addition of the substrates to the S9 reaction mixture to a final concentration of 2 μM. At 0, 10, 20, 30, 60 and 120 min, 25 μL aliquots of the reaction mixture were transferred to plates containing 225 μl of IS/Q solution. After quenching, the plates were centrifuged at 3000×g for 30 minutes. 150 μL aliquots of each supernatant were dried down then reconstituted with 300 μL water. Aliquots (10 μL) of the prepared samples were analyzed on a Thermo Q-Exactive mass spectrometer as described below.
(§4) Liquid Chromatography—Mass Spectrometry: Quantification of test compounds and control substrate was performed by analyte/internal standard peak area ratio (PAR) values measured on a Thermo Q-Exactive mass spectrometer coupled to a Dionex UltiMate 3000 HPLC with a Leap Technologies HTC PAL autosampler. The column used for analysis was a Waters Acquity BEH C18 (1.7 μm particle size, 2.1×50 mm). Mobile phase A consisted of 0.1% (v/v) formic acid in water. Mobile phase B consisted of 0.1% (v/v) formic acid in acetonitrile. Elution of analytes was achieved by a series of linear gradients varying the proportions of A and B. The mass spectrometer was calibrated on a weekly basis and mass tolerance of 5 ppm was used.
(§5) Metabolic stabilities in S9 fractions were determined by measuring the rates of disappearance of test compound and positive control substrate.
(§6) Data (% of substrate remaining) were plotted on a semi-log scale and fitted using an exponential decline model:
(§7) Where Ct—% of substrate remaining at time=t; C0—% of substrate remaining at time=0; t—time; T½—half-life The Half-life (T½) is determined by the following equation: […]
(§8) Assuming a first-order reaction, the slope (k) is extrapolated from the aforementioned plotted data.

[2] = GI S9 stability (Ex. Z), dog intestinal S9; assay type: in vitro ADME; details: pooled intestinal S9 fractions; dog intestinal S9, 1.0 mg/mL protein, 2 μM substrate, pH 7.4; read-out: GIS9 DOG T½ (per Ex. Z)
Description: as §1, §2, §3, §4, §5, §6, §7, §8

[3] = tested on: Respiratory syncytial virus recombinant with luciferase (RSV-Luc5) in NHBE cells; experiment: NHBE RSV-Luc5 384-well Assay (RSV FLUC NHBE 384 V2, Ex. W); assay type: cell-based; details: human respiratory syncytial virus, 72 h, read-out: EC50 RSV FLUC NHBE 384 V2 (per Ex. W)
From the text: Example W: NHBE RSV-Luc5 384-well Assay (EC50 RSVFLUC NHBE-384)
Normal Human Bronchial Epithelial (NHBE) cells were purchased from Lonza (Walkersville, MD Cat #CC2540) and maintained in BEGM Bronchial Epithelial Cell Growth Medium BulletKit (Lonza CC-3170).
Cells were thawed, expanded, and were used for experiments at passage 2. Respiratory syncytial virus recombinant with luciferase (RSV-Luc5) (≥1×10^7 Infectious Units/mL (IU/mL) determined by TCID50) was purchased from Microbiologics (Saint Cloud, MN). Viral replication was determined in NHBE cells in the following manner.
Compounds are prepared in 100% DMSO in 384-well polypropylene plates (Greiner, Monroe, NC, Cat #784201) with 8 compounds per plate in grouped replicates of 4 at 10 serially diluted concentrations (1:3). The serially diluted compounds were transferred to low dead volume Echo plates (Labcyte, Sunnyvale, CA, Cat #LP-0200).
The test compounds were spotted to 384-well assay plates (Greiner, Monroe, NC, Cat#781091) at 200 nL per well using an Echo acoustic dispenser (Labcyte, Sunnyvale, CA). NHBE cells were harvested and suspended in BEGM Bronchial Epithelial Cell Growth Medium BulletKit and seeded to the pre-spotted assay plates at 5,000 cells per well in 30 μL. RSV-Luc5 virus was diluted in BEGM Bronchial Epithelial Cell Growth Medium BulletKit at 500,000 Infectious Units (IU) per mL and 10 μL per well was added to the assay plates containing cells and compounds, for an MOI of 1. The assay plates were incubated for 3 days at 37° C. and 5% CO2. At the end of incubation, One-Glo reagent (Promega, Madison, WI, Cat #E6120) was prepared. The assay plates and One-Glo reagent were equilibrated to room temperature for at least 15 minutes. 40 μL per well of One-Glo reagent was added and the plates were incubated at room temperature for 15 minutes before reading the luminescence signal on an EnVision multimode plate reader (Perkin Elmer, Waltham, MA). Remdesivir was used as positive control and DMSO was used as negative control. Values were normalized to the positive and negative controls (as 0% and 100% replication, respectively) and data was fitted using non-linear regression analysis by Gilead's dose response tool. The EC50 value for each compound was defined as the concentration reducing the viral replication by 50%.

[4] = GI S9 stability (Ex. Z), rat intestinal S9; assay type: in vitro ADME; details: pooled intestinal S9 fractions; rat intestinal S9, 1.0 mg/mL protein, 2 μM substrate, pH 7.4; read-out: GIS9 Rat T½ (per Ex. Z)
Description: as §1, §2, §3, §4, §5, §6, §7, §8

| SMILES | half-life at 2 μM [1] [min] | half-life at 2 μM [2] [min] | EC50 [3] [µM] | half-life at 2 μM [4] [min] |
| --- | --- | --- | --- | --- |
| CC(C)C(=O)OC[C@@]1(C#N)O[C@@H](c2ccc3c(N)ncnn23)[C@H](O)[C@@H]1O [Compound 1, ((2R,3S,4R,5S)-5-(4-aminopyrrolo[2,1-f][1,2,4]triazin-7-yl)-2-cyano-3,4-dihydroxytetrahydrofuran-2-yl)methyl isobutyrate] | 38 | 121 | 14.4 | 11 |
| N#C[C@]1(COC(=O)c2ccccc2)O[C@@H](c2ccc3c(N)ncnn23)[C@H](O)[C@@H]1O [Compound 2, ((2R,3S,4R,5S)-5-(4-aminopyrrolo[2,1-f][1,2,4]triazin-7-yl)-2-cyano-3,4-dihydroxytetrahydrofuran-2-yl)methyl benzoate] | 27 | 789 | 9.31 | 8 |
| CC(C)CC(=O)OC[C@@]1(C#N)O[C@@H](c2ccc3c(N)ncnn23)[C@H](O)[C@@H]1O [Compound 3, ((2R,3S,4R,5S)-5-(4-aminopyrrolo[2,1-f][1,2,4]triazin-7-yl)-2-cyano-3,4-dihydroxytetrahydrofuran-2-yl)methyl 3-methylbutanoate] | 42 | 497 | 8.55 | 12 |
| CC(=O)OC[C@@]1(C#N)O[C@@H](c2ccc3c(N)ncnn23)[C@H](O)[C@@H]1O [Compound 4, ((2R,3S,4R,5S)-5-(4-aminopyrrolo[2,1-f][1,2,4]triazin-7-yl)-2-cyano-3,4-dihydroxytetrahydrofuran-2-yl)methyl acetate] | 23 | 41 | 10.7 | 9 |
| CCC(=O)OC[C@@]1(C#N)O[C@@H](c2ccc3c(N)ncnn23)[C@H](O)[C@@H]1O [Compound 5, ((2R,3S,4R,5S)-5-(4-aminopyrrolo[2,1-f][1,2,4]triazin-7-yl)-2-cyano-3,4-dihydroxytetrahydrofuran-2-yl)methyl propionate] | 29 | 114 | 7.78 | 10 |
| CCCC(=O)OC[C@@]1(C#N)O[C@@H](c2ccc3c(N)ncnn23)[C@H](O)[C@@H]1O [Compound 6, ((2R,3S,4R,5S)-5-(4-aminopyrrolo[2,1-f][1,2,4]triazin-7-yl)-2-cyano-3,4-dihydroxytetrahydrofuran-2-yl)methyl butyrate] | 8 | 38 | 7.69 | 4 |
| N#C[C@]1(COC(=O)C2CC2)O[C@@H](c2ccc3c(N)ncnn23)[C@H](O)[C@@H]1O [Compound 7, ((2R,3S,4R,5S)-5-(4-aminopyrrolo[2,1-f][1,2,4]triazin-7-yl)-2-cyano-3,4-dihydroxytetrahydrofuran-2-yl)methyl cyclopropanecarboxylate] | 292 | 633 | 10.7 | 26 |
| N#C[C@]1(COC(=O)C2CCC2)O[C@@H](c2ccc3c(N)ncnn23)[C@H](O)[C@@H]1O [Compound 8, ((2R,3S,4R,5S)-5-(4-aminopyrrolo[2,1-f][1,2,4]triazin-7-yl)-2-cyano-3,4-dihydroxytetrahydrofuran-2-yl)methyl cyclobutanecarboxylate] | 4 | 10 | 10.1 | 2 |
| CCC(CC)C(=O)OC[C@@]1(C#N)O[C@@H](c2ccc3c(N)ncnn23)[C@H](O)[C@@H]1O [Compound 9, ((2R,3S,4R,5S)-5-(4-aminopyrrolo[2,1-f][1,2,4]triazin-7-yl)-2-cyano-3,4-dihydroxytetrahydrofuran-2-yl)methyl 2-ethylbutanoate] | 55 | 510 | 9.47 | 23 |
| CC(C)(C)C(=O)OC[C@@]1(C#N)O[C@@H](c2ccc3c(N)ncnn23)[C@H](O)[C@@H]1O [Compound 10, ((2R,3S,4R,5S)-5-(4-aminopyrrolo[2,1-f][1,2,4]triazin-7-yl)-2-cyano-3,4-dihydroxytetrahydrofuran-2-yl)methyl pivalate] | 124 | 269 | 7.87 | 53 |
| CCC(CC)C(=O)Nc1ncnn2c([C@@H]3O[C@](C#N)(COC(=O)C(CC)CC)[C@@H](O)[C@H]3O)ccc12 [Compound 11, ((2R,3S,4R,5S)-2-cyano-5-(4-(2-ethylbutanamido)pyrrolo[2,1-f][1,2,4]triazin-7-yl)-3,4-dihydroxytetrahydrofuran-2-yl)methyl 2-ethylbutanoate] | 56 | 95 | 24.6 | 37 |
| CC(C)[C@H](N)C(=O)OC[C@@]1(C#N)O[C@@H](c2ccc3c(N)ncnn23)[C@H](O)[C@@H]1O [Compound 12, ((2R,3S,4R,5S)-5-(4-aminopyrrolo[2,1-f][1,2,4]triazin-7-yl)-2-cyano-3,4-dihydroxytetrahydrofuran-2-yl)methyl L-valinate] | 2 | 5 | 10.7 | 9 |
| CC(C)(C)CC(=O)OC[C@@]1(C#N)O[C@@H](c2ccc3c(N)ncnn23)[C@H](O)[C@@H]1O [Compound 13, ((2R,3S,4R,5S)-5-(4-aminopyrrolo[2,1-f][1,2,4]triazin-7-yl)-2-cyano-3,4-dihydroxytetrahydrofuran-2-yl)methyl 3,3-dimethylbutanoate] | 789 | 755 | 8.59 | 185 |
| Cc1ccc(C(=O)OC[C@@]2(C#N)O[C@@H](c3ccc4c(N)ncnn34)[C@H](O)[C@@H]2O)cc1 [Compound 14, ((2R,3S,4R,5S)-5-(4-aminopyrrolo[2,1-f][1,2,4]triazin-7-yl)-2-cyano-3,4-dihydroxytetrahydrofuran-2-yl)methyl 4-methylbenzoate] | 25 | 426 | 9.6 | 6 |
| CC1(C(=O)OC[C@@]2(C#N)O[C@@H](c3ccc4c(N)ncnn34)[C@H](O)[C@@H]2O)CC1 [Compound 15, ((2R,3S,4R,5S)-5-(4-aminopyrrolo[2,1-f][1,2,4]triazin-7-yl)-2-cyano-3,4-dihydroxytetrahydrofuran-2-yl)methyl 1-methylcyclopropane-1-carboxylate] | 104 | 789 | 8.77 | 23 |
